Results as given in US9573957B2 (Boehringer Ingelheim International GmbH, priority 2013, dated 2017).

How the values were obtained:
human LTA4 hydrolase = human LTA4 hydrolase (Homo sapiens (Human), UniProt P09960); experiment: LTA4H Enzyme assay (peptidase, Arg-AMC cleavage); type: biochemical; details: LTA4H Enzyme 1 nM, Arg-AMC substrate 50 μM, room temperature 1 h, fluorescence
Method: The compounds of the invention are assessed for the ability to interact with human LTA4 hydrolase in an enzymatic assay that measures the ability of the enzyme to cleave the peptide bond of arginyl-aminomethylcoumarin (Arg-AMC). LTA4H Enzyme (1 nM final), Arg-AMC substrate (50 μM final), and compound are combined in a reaction buffer (50 mM Tris-HCl (pH 7.5), 100 mM KCl, 0.5% bovine serum albumin) at room temperature for 1 h. The formation of product is assessed by measuring the fluorescence of aminomethylcoumarin product (excitation wavelength 380 nm/emission wavelength 460 nm).

[1] = test system: synthesis of LTB4 in human whole blood; experiment: LTB4 production inhibition assay in human whole blood (HWB); type: cell-based; details: heparinized human whole blood, 15 min at 37° C., Calcimycin 20 μM 30 min, plasma LTB4 by HTRF
Method: The compounds of the invention are additionally tested in a human whole blood (HWB) assay to determine their ability to inhibit the synthesis of LTB4 in a cellular system. Compounds are combined with heparinized human whole blood and incubated for 15 minutes at 37° C. Calcimycin (20 μM final, prepared in phosphate-buffered saline, pH 7.4) is then added and the mixture is incubated for another 30 minutes at 37° C. The samples are centrifuged for 5 min at low speed (1500×g) and the plasma layer is removed. Plasma LTB4 concentrations are then measured using an antibody-based homogenous time-resolved fluorescence method (CisBio, Bedford, Mass.).

human LTA4 hydrolase, sequence (P09960 whole entry): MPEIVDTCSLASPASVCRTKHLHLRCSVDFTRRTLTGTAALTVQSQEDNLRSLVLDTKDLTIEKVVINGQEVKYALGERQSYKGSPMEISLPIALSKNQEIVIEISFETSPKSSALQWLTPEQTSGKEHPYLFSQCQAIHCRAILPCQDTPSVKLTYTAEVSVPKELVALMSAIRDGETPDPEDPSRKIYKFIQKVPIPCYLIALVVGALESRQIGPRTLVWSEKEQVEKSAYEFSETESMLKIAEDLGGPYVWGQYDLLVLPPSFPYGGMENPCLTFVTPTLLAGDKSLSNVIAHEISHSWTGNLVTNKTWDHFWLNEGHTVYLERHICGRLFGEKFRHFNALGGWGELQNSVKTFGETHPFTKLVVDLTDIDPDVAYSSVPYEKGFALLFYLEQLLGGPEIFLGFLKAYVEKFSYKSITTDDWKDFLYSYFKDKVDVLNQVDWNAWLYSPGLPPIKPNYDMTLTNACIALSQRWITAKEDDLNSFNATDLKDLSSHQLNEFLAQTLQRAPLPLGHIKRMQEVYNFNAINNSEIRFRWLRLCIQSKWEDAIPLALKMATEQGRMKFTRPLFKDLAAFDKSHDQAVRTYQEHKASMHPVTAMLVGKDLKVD

IC50 (human LTA4 hydrolase) [µM] | IC50 [1] [µM] | Compound
0.0012 | 0.22 | O=C1[C@@H](O)CCN1C1CCN(C[C@@H]2Cc3ccc(Oc4ccc(-c5ccn[nH]5)cn4)cc3O2)CC1 [Example 61, (S)-3-Hydroxy-1-(1-{(S)-6-[5-(2H-pyrazol-3-yl)-pyridin-2-yloxy]-2,3-dihydro-benzofuran-2-ylmethyl}-piperidin-4-yl)-pyrrolidin-2-one]
0.00077 | 0.34 | O=C1[C@@H](O)CCN1C1CCN(C[C@H]2Cc3ccc(Oc4ccc(-c5ccn[nH]5)cn4)cc3O2)CC1 [Example 62, (S)-3-Hydroxy-1-(1-{(R)-6-[5-(2H-pyrazol-3-yl)-pyridin-2-yloxy]-2,3-dihydro-benzofuran-2-ylmethyl}-piperidin-4-yl)-pyrrolidin-2-one]
0.00066 | 0.19 | O=C1CCCN1C1CCN(C[C@H]2Cc3ccc(Oc4ccc(-c5ccn[nH]5)cn4)cc3O2)CC1 [Example 63, 1-(1-{(R)-6-[5-(2H-Pyrazol-3-yl)-pyridin-2-yloxy]-2,3-dihydro-benzofuran-2-ylmethyl}-piperidin-4-yl)-pyrrolidin-2-one]
0.00095 | 0.15 | O=C1CCCN1C1CCN(C[C@@H]2Cc3ccc(Oc4ccc(-c5ccn[nH]5)cn4)cc3O2)CC1 [Example 64, 1-(1-{(S)-6-[5-(2H-Pyrazol-3-yl)-pyridin-2-yloxy]-2,3-dihydro-benzofuran-2-ylmethyl}-piperidin-4-yl)-pyrrolidin-2-one]
0.0046 | 0.56 | O=C(CO)N1CCN(CC2Cc3ccc(Oc4ccc(-c5ccn[nH]5)cn4)cc3O2)CC1 (stereo not shown) [Example 65, 2-Hydroxy-1-(4-{6-[5-(2H-pyrazol-3-yl)-pyridin-2-yloxy]-2,3-dihydro-benzofuran-2-ylmethyl}-piperazin-1-yl)-ethanone]
0.0017 | 0.43 | CS(=O)(=O)N1CCN(Cc2ccc3cc(Oc4ccc(-c5ccn[nH]5)cn4)ccc3n2)CC1 [Example 66, 2-(4-Methanesulfonyl-piperazin-1-ylmethyl)-6-[5-(2H-pyrazol-3-yl)-pyridin-2-yloxy]-quinoline]
0.0029 | 0.55 | CCS(=O)(=O)N1CCN(Cc2ccc3cc(Oc4ccc(-c5ccn[nH]5)cn4)ccc3n2)CC1 [Example 67, 2-(4-Ethanesulfonyl-piperazin-1-ylmethyl)-6-[5-(2H-pyrazol-3-yl)-pyridin-2-yloxy]-quinoline]
0.0011 | 0.27 | O=C1CCCN1C1CCN(CCC2COc3cc(Oc4ccc(-c5ccn[nH]5)cn4)ccc32)CC1 (stereo not shown) [Example 68, 1-[1-(2-{6-[5-(2H-Pyrazol-3-yl)-pyridin-2-yloxy]-2,3-dihydro-benzofuran-3-yl}-ethyl)-piperidin-4-yl]-pyrrolidin-2-one]
0.00075 | 0.21 | O=C1OCCN1C1CCN(CCC2COc3cc(Oc4ccc(-c5ccn[nH]5)cn4)ccc32)CC1 (stereo not shown) [Example 69, 3-[1-(2-{6-[5-(2H-Pyrazol-3-yl)-pyridin-2-yloxy]-2,3-dihydro-benzofuran-3-yl}-ethyl)-piperidin-4-yl]-oxazolidin-2-one]
0.0017 | 0.29 | O=C1[C@@H](O)CCN1C1CCN(CCC2COc3cc(Oc4ccc(-c5ccn[nH]5)cn4)ccc32)CC1 (stereo partly drawn) [Example 70, (S)-3-Hydroxy-1-[1-(2-{6-[5-(2H-pyrazol-3-yl)-pyridin-2-yloxy]-2,3-dihydro-benzofuran-3-yl}-ethyl)-piperidin-4-yl]-pyrrolidin-2-one]
0.0017 | 0.49 | CS(=O)(=O)N1CCN(CCC2COc3cc(Oc4ccc(-c5ccn[nH]5)cn4)ccc32)CC1 (stereo not shown) [Example 71, 1-Methanesulfonyl-4-(2-{6-[5-(2H-pyrazol-3-yl)-pyridin-2-yloxy]-2,3-dihydro-benzofuran-3-yl}-ethyl)-piperazine]
0.00047 | 0.16 | O=C1CCCN1C1CCN(CCc2coc3cc(Oc4ccc(-c5ccn[nH]5)cn4)ccc23)CC1 [Example 72, 1-[1-(2-{6-[5-(2H-Pyrazol-3-yl)-pyridin-2-yloxy]-benzofuran-3-yl}-ethyl)-piperidin-4-yl]-pyrrolidin-2-one]
0.00073 | 0.22 | O=C1[C@@H](O)CCN1C1CCN(CCc2coc3cc(Oc4ccc(-c5ccn[nH]5)cn4)ccc23)CC1 [Example 73, (S)-3-Hydroxy-1-[1-(2-{6-[5-(2H-pyrazol-3-yl)-pyridin-2-yloxy]-benzofuran-3-yl}-ethyl)-piperidin-4-yl]-pyrrolidin-2-one]
0.0014 | 0.35 | CS(=O)(=O)N1CCN(CCc2coc3cc(Oc4ccc(-c5ccn[nH]5)cn4)ccc23)CC1 [Example 74, 1-Methanesulfonyl-4-(2-{6-[5-(2H-pyrazol-3-yl)-pyridin-2-yloxy]-benzofuran-3-yl}-ethyl)-piperazine]
0.00088 | 0.25 | CO[C@@H](C)C(=O)N1CCN(CCc2coc3cc(Oc4ccc(-c5ccn[nH]5)cn4)ccc23)CC1 [Example 75, (S)-2-Methoxy-1-[4-(2-{6-[5-(2H-pyrazol-3-yl)-pyridin-2-yloxy]-benzofuran-3-yl}-ethyl)-piperazin-1-yl]-propan-1-one]
0.0017 | 0.36 | CO[C@H](C)C(=O)N1CCN(CCC2COc3cc(Oc4ccc(-c5ccn[nH]5)cn4)ccc32)CC1 (stereo partly drawn) [Example 76, (R)-2-Methoxy-1-[4-(2-{6-[5-(2H-pyrazol-3-yl)-pyridin-2-yloxy]-2,3-dihydro-benzofuran-3-yl}-ethyl)-piperazin-1-yl]-propan-1-one]
0.00088 | 0.17 | COCC(=O)N1CCN(CCc2coc3cc(Oc4ccc(-c5ccn[nH]5)cn4)ccc23)CC1 [Example 77, 2-Methoxy-1-[4-(2-{6-[5-(2H-pyrazol-3-yl)-pyridin-2-yloxy]-benzofuran-3-yl}-ethyl)-piperazin-1-yl]-ethanone]
0.00092 | 0.19 | CO[C@H](C)C(=O)N1CCN(CCc2coc3cc(Oc4ccc(-c5ccn[nH]5)cn4)ccc23)CC1 [Example 78, (R)-2-Methoxy-1-[4-(2-{6-[5-(2H-pyrazol-3-yl)-pyridin-2-yloxy]-benzofuran-3-yl}-ethyl)-piperazin-1-yl]-propan-1-one]

Compound | IC50 (human LTA4 hydrolase) [µM] | IC50 [1] [µM]
CO[C@@H](C)C(=O)N1CC2CCC(C1)N2Cc1ccc2cc(Oc3ccc(-c4ccn[nH]4)cn3)ccc2n1 [Example 53, (S)-2-Methoxy-1-(8-{6-[5-(2H-pyrazol-3-yl)-pyridin-2-yloxy]-quinolin-2-ylmethyl}-3,8-diaza-bicyclo[3.2.1]oct-3-yl)-propan-1-one] | 0.00066 | 0.11
O=C([C@H]1CCCO1)N1CC2CCC(C1)N2Cc1ccc2cc(Oc3ccc(-c4ccn[nH]4)cn3)ccc2n1 [Example 54, (8-{6-[5-(2H-Pyrazol-3-yl)-pyridin-2-yloxy]-quinolin-2-ylmethyl}-3,8-diaza-bicyclo[3.2.1]oct-3-yl)-(R)-tetrahydro-furan-2-yl-methanone] | 0.0013 | 0.19
O=C([C@@H]1CCCO1)N1CC2CCC(C1)N2Cc1ccc2cc(Oc3ccc(-c4ccn[nH]4)cn3)ccc2n1 [Example 55, (8-{6-[5-(2H-Pyrazol-3-yl)-pyridin-2-yloxy]-quinolin-2-ylmethyl}-3,8-diaza-bicyclo[3.2.1]oct-3-yl)-(S)-tetrahydro-furan-2-yl-methanone] | 0.0017 | 0.28
O=C(N1CC2CCC(C1)N2Cc1ccc2cc(Oc3ccc(-c4ccn[nH]4)cn3)ccc2n1)C1(O)CC1 [Example 56, (1-Hydroxy-cyclopropyl)-(8-{6-[5-(2H-pyrazol-3-yl)-pyridin-2-yloxy]-quinolin-2-ylmethyl}-3,8-diaza-bicyclo[3.2.1]oct-3-yl)-methanone] | 0.00053 | 0.15
C[C@H](O)C(=O)N1CC2CCC(C1)N2Cc1ccc2cc(Oc3ccc(-c4ccn[nH]4)cn3)ccc2n1 [Example 57, (S)-2-Hydroxy-1-(8-{6-[5-(2H-pyrazol-3-yl)-pyridin-2-yloxy]-quinolin-2-ylmethyl}-3,8-diaza-bicyclo[3.2.1]oct-3-yl)-propan-1-one] | 0.00043 | 0.098
CC(C)(O)C(=O)N1CC2CCC(C1)N2Cc1ccc2cc(Oc3ccc(-c4ccn[nH]4)cn3)ccc2n1 [Example 58, 2-Hydroxy-2-methyl-1-(8-{6-[5-(2H-pyrazol-3-yl)-pyridin-2-yloxy]-quinolin-2-ylmethyl}-3,8-diaza-bicyclo[3.2.1]oct-3-yl)-propan-1-one] | 0.00045 | 0.12
C[C@@H](O)C(=O)N1CC2CCC(C1)N2Cc1ccc2cc(Oc3ccc(-c4ccn[nH]4)cn3)ccc2n1 [Example 59, (R)-2-Hydroxy-1-(8-{6-[5-(2H-pyrazol-3-yl)-pyridin-2-yloxy]-quinolin-2-ylmethyl}-3,8-diaza-bicyclo[3.2.1]oct-3-yl)-propan-1-one] | 0.00054 | 0.11
COCC(=O)N1CC2CCC(C1)N2Cc1ccc2cc(Oc3ccc(-c4ccn[nH]4)cn3)ccc2n1 [Example 60, 2-Methoxy-1-(8-{6-[5-(2H-pyrazol-3-yl)-pyridin-2-yloxy]-quinolin-2-ylmethyl}-3,8-diaza-bicyclo[3.2.1]oct-3-yl)-ethanone] | 0.00033 | 0.11
